Experimental data from patent US12240844B2 (Voronoi, Inc., priority 2019, dated 2025).

tested on: IL-6; assay: IL-6 secretion inhibition in LPS-treated THP-1 cells (ELISA); type: cell-based; conditions: Homo sapiens, compound 0.5 μM, LPS 500 ng/ml, 24 hours, read-out: THP1/IL6 (% inhib)
Procedure: In order to evaluate the cytokine secretion inhibitory efficacy of mononuclear cells, THP-1 cells (ATCC, #TIB-202) as a human-derived monocyte cell line were cultured in RPMI-1640 (Hyclone, SH30027.01) media in which 10% fetal bovine serum (Hyclone, SH30084.03), 1% penicillin streptomycin (Welgene, LS202-02) and 50 μM 2-Mercaptoethanol (Gibco, #21985023) were contained. In the test, 1.5-2×10^5 cells/250 μl per each well were dispensed in a 48-well plate (SPL, #30048) and incubated in an incubator at 37° C. and 5% CO2 for 16 hours, and then the compounds were diluted in DMSO so that the final concentration was 0.5 μM. It was treated with Lipopolysaccharides (LPS) (sigma, #L6529) […]. After treatment with the compound, the LPS was treated so that the final concentration was 500 ng/ml, and then the cell culture fluid was collected after culturing for 24 hours, and the degrees of the cytokines IL-6 (R&D system, #D6050) and TNF-α (R&D system, #DTA00D) contained in the culture fluid were collected using each ELISA kit. After performing the experiment according to the manufacturer's instructions, the absorbance at 450 nm was measured and analyzed using a microplate reader.

**Q.** How did the inhibition at 0.5 µM turn out when `COCCNc1cc(Nc2ccc(S(=O)(=O)N3CCC(N4CCOCC4)CC3)c3c2OCCO3)nc2[nH]cc(C(F)(F)F)c12` [Example 97, N^4-(2-methoxyethyl)-N^6-(8-((4-morpholonopiperidin-1-yl)sulfonyl)-2,3-dihydrobenzo[b] [1,4]dioxin-5-yl)-3-(trifluoromethyl)-1H-pyrrolo[2,3-b]pyridine-4,6-diamine] was run?
**A.** Its inhibition at 0.5 µM is 17%.

**Q.** For `CCNc1cc(Nc2ccc(C(=O)N3C[C@@H]4C[C@H]3CO4)c3c2OCCO3)nc2[nH]cc(C(F)(F)F)c12` [Example 44, ((1S,4S)-2-oxa-5-azabicyclo[2.2.1]heptan-5-yl)(8-((4-(ethylamino)-3-(trifluoromethyl)-1H-pyrrolo[2,3-b]pyridin-6-yl)amino)-2,3-dihydrobenzo[b] [1,4]dioxin-5-yl)methanone], which inhibition at 0.5 µM is on record?
**A.** Its inhibition at 0.5 µM is 47.9%.

**Q.** `CNc1cc(Nc2ccc(S(=O)(=O)N3CCC(N4CCOCC4)CC3)c3c2OCCO3)nc2[nH]cc(C(F)(F)F)c12` [Example 233, N^4-methyl-N^6-(8-((4-morpholinopiperidin-1-yl)sulfonyl)-2,3-dihydrobenzo [b] [1,4]dioxin-5-yl)-3-(trifluoromethyl)-1H-pyrrolo[2,3-b]pyridine-4,6-diamine] was tested. Which inhibition at 0.5 µM did it give?
**A.** Its inhibition at 0.5 µM is 4.3%.

**Q.** For `O=C(c1ccc(Nc2cc(C3CC3)c3c(C(F)(F)F)c[nH]c3n2)c2c1CCO2)N1CCOCC1` [Example 91, (7-((4-cyclopropyl-3-(trifluoromethyl)-1H-pyrrolo[2,3-b]pyridin-6-yl)amino)-2,3-dihydrobenzofuran-4-yl)(morpholino) methanone], which inhibition at 0.5 µM is on record?
**A.** The inhibition at 0.5 µM was 52.5%.

**Q.** For `CCNc1cc(Nc2ccc(C(=O)N3CCC(N4CCOCC4)CC3)c3c2OCC3)nc2[nH]cc(C(F)(F)F)c12` [Example 90, (7-((4-(ethylamino)-3-(trifluoromethyl)-1H-pyrrolo[2,3-b]pyridin-6-yl)amino)-2,3-dihydrobenzofuran-4-yl)(4-morpholinopiperidin-1-yl)methanone], which inhibition at 0.5 µM is on record?
**A.** Its inhibition at 0.5 µM is 12.2%.

**Q.** With `CCNc1cc(Nc2ccc(P3(=O)CCN(C4CCOCC4)CC3)cc2OC)nc2[nH]cc(C(F)(F)F)c12` [Example 94, 4-(4-((4-(ethylamino)-3-(trifluoromethyl)-1H-pyrrolo[2,3-b]pyridin-6-yl)amino)-3-methoxyphenyl)-1-(tetrahydro-2H-pyran-4-yl)-1,4-azaphosphinane 4-oxide] as the molecule, how does the inhibition at 0.5 µM read?
**A.** Its inhibition at 0.5 µM is 21%.

**Q.** With `COc1cc(S(=O)(=O)N2CCC(N3CCOCC3)CC2)ccc1Nc1cc(NCCS(C)(=O)=O)c2c(C(F)(F)F)c[nH]c2n1` [Example 194, N^6-(2-methoxy-4-((4-morpholinopiperidin-1-yl)sulfonyl)phenyl)-N^4-(2-(methylsulfonyl)ethyl)-3-(trifluoromethyl)-1H-pyrrolo[2,3-b]pyridine-4,6-diamine] as the molecule, how does the inhibition at 0.5 µM read?
**A.** Its inhibition at 0.5 µM is 6.3%.

**Q.** `CCNc1cc(Nc2ccc(C(=O)N3CCN(C4COC4)CC3)c3c2OCCO3)nc2[nH]cc(C(F)(F)F)c12` [Example 173, (8-((4-(ethylamino)-3-(trifluoromethyl)-1H-pyrrolo[2,3-b]pyridin-6-yl)amino)-2,3-dihydrobenzo[b] [1,4]dioxin-5-yl)(4-(oxetan-3-yl)piperazin-1-yl)methanone] was tested. Which inhibition at 0.5 µM did it give?
**A.** Its inhibition at 0.5 µM is 9.1%.

**Q.** Which inhibition at 0.5 µM does the source give for `CNc1cc(Nc2ccc(C(=O)N3CCC(N4CCOCC4)CC3)c3c2OCC3)nc2[nH]cc(C(F)(F)F)c12` [Example 234, (7-((4-(methylamino)-3-(trifluoromethyl)-1H-pyrrolo[2,3-b]pyridin-6-yl)amino)-2,3-dihydrobenzofuran-4-yl)(4-morpholinopiperidin-1-yl)methanone] here?
**A.** Its inhibition at 0.5 µM is 50.9%.

**Q.** `CNc1cc(Nc2ccc(S(=O)(=O)N3CCC(N4C[C@H]5C[C@@H]4CO5)CC3)cc2OC)nc2[nH]cc(C(F)(F)F)c12` [Example 243, N^6-(4-((4-((1R,4R)-2-oxa-5-azabicyclo[2.2.1]heptan-5-yl)piperidin-1-yl)sulfonyl)-2-methoxyphenyl)-N^4-methyl-3-(trifluoromethyl)-1H-pyrrolo[2,3-b]pyridine-4,6-diamine] was tested. Which inhibition at 0.5 µM did it give?
**A.** The inhibition at 0.5 µM was 32.3%.

**Q.** Which inhibition at 0.5 µM does the source give for `CCNc1cc(Nc2ccc(C(=O)N3CCN(C4COC4)CC3)c3c2OCC3)nc2[nH]cc(C(F)(F)F)c12` [Example 248, (7-((4-(ethylamino)-3-(trifluoromethyl)-1H-pyrrolo[2,3-b]pyridin-6-yl)amino)-2,3-dihydrobenzofuran-4-yl)(4-(oxetan-3-yl)piperazin-1-yl)methanone] here?
**A.** Its inhibition at 0.5 µM is 48.4%.

**Q.** How did the inhibition at 0.5 µM turn out when `CCNc1cc(Nc2ccc(C(=O)N3CCC(N4C[C@H]5C[C@@H]4CO5)CC3)c3c2OCC3)nc2[nH]cc(C(F)(F)F)c12` [Example 244, (4-((1R,4R)-2-oxa-5-azabicyclo[2.2.1]heptan-5-yl)piperidin-1-yl)(7-((4-(ethylamino)-3-(trifluoromethyl)-1H-pyrrolo[2,3-b]pyridin-6-yl)amino)-2,3-dihydrobenzofuran-4-yl)methanone] was run?
**A.** Its inhibition at 0.5 µM is 40.1%.

**Q.** With `CCNc1cc(Nc2ccc(P3(=O)CCN(C(C)=O)CC3)cc2OC)nc2[nH]cc(C(F)(F)F)c12` [Example 42, 1-(4-(4-((4-(ethylamino)-3-(trifluoromethyl)-1H-pyrrolo[2,3-b]pyridin-6-yl)amino)-3-methoxyphenyl)-4-oxido-1,4-azaphosphinan-1-yl)ethan-1-one] as the molecule, how does the inhibition at 0.5 µM read?
**A.** The inhibition at 0.5 µM was 48.3%.
